In patent US5783568A, “Methods for treating cancer and other cell proliferative diseases” (Sugen, Inc., priority 1994, dated 1998):
Entries after “also recorded” stand apart in the source; their conditions may differ.

Columns and labels:
[1] = molecular target: sFGFR (soluble extracellular domain of FGFR2 (bek)); assay: Isothermal titration calorimetry, aFGF binding to sFGFR; set-up: species or system human; conditions: ITC
Text: A plasmid encoding the extracellular, ligand-binding domain of human FGFR2 (residues 1-355) was constructed using standard oligonucleotide-directed mutagenesis (Amersham) to introduce a translational termination codon immediately prior to the beginning of the single transmembrane domain of the receptor (Dionne et al., 1990). BamHI and SacII restriction sites were introduced 3' to the new termination codon. An XbaI-SacII fragment was isolated from the replicative form (RF) of this M13 mutagenesis product, filled in using T4 DNA polymerase (Boehringer-Mannheim) and inserted into the SmaI site of the expression vector pCVN (Dionne et al., 1990). This expression vector, which contains both the neomycin resistance and the dihydrofolate reductase genes for selection and amplification, was transfected into CHO cells following published procedures. Wigler et al., 1979, Cell 16:777-785.
The binding of aFGF to sFGFR was studied using the technique of isothermal titration calorimetry (ITC). In this technique the heat liberated (or absorbed) upon binding is monitored as small aliquots of ligand are added sequentially to a solution of the receptor at known concentration, which is maintained at constant temperature. […]

FGFR2 (bek) [2] = assay: Cross-linking (BS^3) of FGF receptors in CHO-K1 cells, receptor dimerization; type: cell-based, human; conditions: 0.1 nM aFGF, with or without 50 nM heparin
Method: (§1) Parental (lanes 1-4) and mutant CHO cells (lanes 5-8) were incubated with either 50 nM heparin (lanes 2 and 6), 0.1 nM aFGF (lanes 3 and 7), or both (lanes 4 and 8), for 1 hour at 4° C. Cells were then treated with the covalent cross-linking agent BS^3 for […] at room temperature, solubilized and immunoprecipitated with anti-FGFR2 antibodies. The samples were analyzed by a gradient SDS gel (6-8%), transferred to nitrocellulose membranes and probed with anti-FGFR2 antibodies. M--FGFR monomers; D--FGFR dimers.
(§2) Cells grown in fibronectin-coated dishes were starved overnight in F-12 medium containing 0.5% FBS. Cells were then washed with ice-cold binding medium (F-12 medium containing 20 mM Hepes (pH 7.5) and 0.1% BSA), and incubated for 1 hour at 4° C. with either aFGF (0.1 nM), heparin (50 nM), or both. The cells were then washed twice with cold PBS and incubated with 1 mM BS^3 in PBS for 20 minutes at room temperature. The cross-linking reaction was quenched by the addition of 50 mM Tris-HCl and 100 mM glycine for 10 min at room temperature. […]
(§3) Full-length FGFR2 was transfected into two CHO cell lines; wild-type CHO-K1, and the mutant CHO-pgsD-677, which is defective in heparin sulfate expression at its cell-surface (Esko, 1991). […] Cells were then lysed, and immunoprecipitated FGFR2 was analyzed by SDS-PAGE followed by immunoblotting with anti-FGFR2 antibodies.

FGFR2 (bek) [3] = assay: Cross-linking (BS^3) of FGF receptors in mutant CHO-pgsD-677 cells, receptor dimerization; type: cell-based, human; conditions: 0.1 nM aFGF, with or without 50 nM heparin
Method: as §1, §2, §3

FGFR2 (bek) [4] = assay: Tyrosine phosphorylation of FGFR2 in wild-type CHO-K1 cells; type: cell-based, human; conditions: 0.1 nM aFGF alone, 5 min at 37° C.
Method: (§4) Cells were lysed and the receptor was immunoprecipitated with anti-FGFR2 antibodies. Samples were then analyzed by SDS-PAGE, transferred to nitrocellulose membranes, and tyrosine-phosphorylated proteins were detected by immunoblotting with anti-phosphotyrosine antibodies.
(§5) Wild-type CHO cells (CHO-K1), as well as heparin sulfate-deficient mutant cells (CHO-pgsD-677) which were kindly provided by Prof. J. Esko (Esko, 1991), were cultured in F-12 medium containing 7.5% FBS, 1% Ampicillin/Streptomycin and 1% glutamine. Both CHO cell lines were co-transfected with the wild-type human FGFR2 (bek) DNA in the expression vector pMJ30 (Dionne et al., 1990) (40 μg/10 cm dish) and the pSVneo resistant gene (0.5 mg/10 cm dish), using the calcium phosphate method (Chen and Okayama, 1987). Geneticin (1 mg/ml) resistant clones were screened for expression of the receptor by immunoprecipitation and immunoblotting analysis using anti-FGFR2 antibodies.
(§6) Wild-type and mutant CHO cells were starved overnight in F-12 medium containing 0.5% FBS, and stimulated with either 0.1 nM aFGF, 50 nM heparin, or both, for 5 min at 37° C. Cells were lysed, immunoprecipitated with anti-FGFR2 antibodies and analyzed by immunoblotting with anti-phosphotyrosine (anti-PTyr) antibodies.

FGFR1 (flg) = FGFR1 (flg) expressed in the two CHO cell lines; type: cell-based
[5] = system: sFGFR (soluble extracellular domain of FGFR2); assay: Isothermal titration calorimetry, heparin binding to sFGFR; set-up: species or system human; conditions: ITC
FGFR2 (bek) [6] = assay: Tyrosine phosphorylation of FGFR2 in mutant (HSPG-deficient) CHO-pgsD-677 cells; type: cell-based, human; conditions: 0.1 nM aFGF, 50 nM heparin, 5 min at 37° C.
Method: as §4, §5, §6

[7] = system: vascular endothelial cells; conditions: cited from earlier work

Substance | Kd ([1]; single class of binding sites, mean ± SD of three experiments, no added heparin) [µM] | receptor dimerization in CHO-K1 cells (FGFR2 (bek) [2]) | receptor dimerization in mutant CHO-pgsD-677 cells (FGFR2 (bek) [3]) | FGFR2 autophosphorylation in CHO-K1 cells (FGFR2 (bek) [4]) | dimerization and autophosphorylation with FGFR1 (flg) (FGFR1 (flg)) | effect of heparin on the aFGF/sFGFR binding parameters ([1]; sFGFR titrated into mixture of heparin and aFGF) | heparin binding to sFGFR [5] | FGFR2 autophosphorylation in mutant (heparin-deficient) CHO cells (FGFR2 (bek) [6]) | mitogenic effect of aFGF on vascular endothelial cells [7]
aFGF: aFGF was expressed in E. coli and purified by binding to a heparin-sepharose column | 0.528 ± 0.173 | could induce receptor dimerization regardless of the presence of exogenous heparin | could only induce the dimerization of FGFR2 when exogenous heparin was added; also recorded: can only induce FGFR dimerization in the presence of heparin | stimulation of FGFR2 autophosphorylation | Identical results |  |  |  | 
heparin |  |  |  |  |  | no effect upon the binding parameters could be detected; also recorded: does not detectably affect the interaction; also recorded: does not influence the affinity of the aFGF/sFGFR interaction | failed to detect an interaction with significant affinity; also recorded: could not be detected; also recorded: does not itself interact with sFGFR | required for significant levels of aFGF-induced FGFR2 autophosphorylation; also recorded: the addition of heparin is required for aFGF to activate FGFR | potentiates the mitogenic effect of aFGF on vascular endothelial cells
